{"source": "patent US12570694B2", "about": "“Peptides and pharmaceutical, nutraceutical or veterinary compositions for hair loss prevention and/or treatment” (VYTRUS BIOTECH, S.L., priority 2016, dated 2026)", "key": {"[1]": {"system": "insulin growth factor 1 (IGF-1)", "assay": "IGF-1 levels in secretomas of treated HFDPC", "assay_type": "cell-based, human", "conditions": "24 h and 48 h after treatment, data not shown", "protocol": "Secretomas (supernatants that could be recovered from the HFDPC cultures challenged with the tested materials of Table 1) were analysed for detecting the presence and levels of animal cell growth factors and of microRNAs associated with hair growth in dermal papilla. […] Similar results (at 24 and 48 h) were observed when analysing the levels of fibroblast growth factor 7 (FGF-7). Both growth factors are associated with the promotion of hair growth."}, "miRNA-31": {"system": "miRNA-31", "assay": "miRNA-31 expression in secretomes of treated HFDPC", "assay_type": "cell-based, human", "conditions": "in relation to the controls, FIG. 5(A),(C)", "text": "FIG. 5, related with Assay 1, is a graph showing the expression levels of miRNA-22 (FIG. 5(B)) and miRNA-31 (FIGS. 5(A) and (C)) in secretomas from HFDPC treated with either the peptide of SEQ ID NO: 6 or the cell-free supernatants of Curcuma longa.\nFrom these secretomes of HFDPC, also the levels of the microRNAs miRNA-31 and miRNA-22 were detected (FIG. 5)."}, "[2]": {"system": "human dermal fibroblasts (HDF)", "assay": "In vitro proliferation of human dermal fibroblasts (BrdU incorporation)", "assay_type": "cell-based", "conditions": "basal control = 100%", "protocol": "In order to further test the effects of the peptides of the invention in an additional setting, a proliferation assay was conducted onto human dermal fibroblasts (HDF).\nNormal Human Dermal Fibroblasts (HDF) were obtained from foreskin samples, surpluses from surgery of young donors (0-3 years old) and stablished by using the standard method of explants growth and enzymic dissociation of proliferating cells. Cells were propagated and grown in Growth Medium (GM): Dulbecco's 1 g/L glucose medium, supplemented with 10% foetal bovine serum (FBS, PAA); 2 mM L-glutamine (Lonza); and antibiotics (100 μg/ml Penicillin and 100 U/ml of Streptomycin, Lonza). For routine subcultivation and propagation of the primary culture, cells were washed twice with PBS ([…] buffered saline, pH 7.4), harvested with trypsin—EDTA (Gibco) and counted in Neubauer chamber before its seeding in a new cell culture flask (Falcon, 75 cm2).\nTest products were prepared at the defined final concentrations by its dilution in Maintenance Medium (Dulbecco's 1 g/L glucose medium, supplemented with 1% foetal bovine serum (FBS, PAA); 2 mM L-glutamine (Lonza); and antibiotics (100 μg/ml Penicillin and 100 U/ml of Streptomycin, Lonza), just before each application.\nHFD proliferation was assessed determining the proliferation index (%). Cell DNA replication was quantified by means of incorporated bromodeoxiuridine (BrdU) into DNA of treated cells. […] Cells being divided incorporated BrdU that is further detected by means of antibodies and immunocytochemistry detection. […]\nData are depicted in FIG. 6 and FIG. 7, wherein it is shown the proliferation index (%) of HDF, calculated as the percentage of growing in relation to the basal control (non-treated HDF) which is accorded a 100% value of proliferation index. […]\nData are depicted in FIG. 16, wherein it is shown the proliferation index (%) of HDF, calculated as the percentage of growing in relation to the basal control (non-treated HDF) which is accorded a 100% value of proliferation index."}, "[3]": {"system": "males and females with hair-loss problems", "assay": "In vivo test: capillary (hair) density by Trichoscan microphotography in volunteers", "parameters": "species or system human", "protocol": "(§1) Curcuma longa cell-free supernatant prepared as indicated in Example 2, as well as the peptide of SEQ ID NO: 6 in the PBS buffered fortifying solution 2× disclosed in Example 1 were tested in males and females (n=60, from 18 to 60 years old) with hair-loss problems. There were excluded those volunteers that received a capillary treatment three months before the assay, volunteers with cutanic pathologies at scalp (psoriasis, dermatitis, etc.) and allergy to compounds in the formulations.\n(§2) Tested compounds were daily applied.\n(§3) At time 0 (T0) there were taken scalp pictures (frontal and occipital parts), trichograms for determining the hair phase cycle (telogen or anagen phase), the combing test (number of hair lost during combing), and capillary density by microphotography with Trichoscan®.\n(§4) At t=45 days and t=90 days, there were performed the combing test and the density tests (Trichoscan®)\n(§5) At t=150 days again as in t=0.\n(§6) Volunteers were separated in three groups. Group 1 receiving SEQ ID NO: 6 in the PBS buffered fortifying solution 2× disclosed in Example 1; Group 2 receiving Curcuma longa cell-free supernatant prepared as indicated in Example 2, and Group 3 the placebo.\nData are depicted in next Table 2 for capillary density. This table includes the average values determined of capillary density increase after evaluating in each volunteer the number of hairs in a 0.25 cm^2 are, capillary density at t=0 and t=90, and said increase in relation to t=0 value"}, "[4]": {"system": "males and females with hair-loss problems", "assay": "In vivo test: combing test (number of hair lost during combing) in volunteers", "parameters": "species or system human", "protocol": "as §1, §2, §3, §4, §5, §6\nIn particular, this table includes the average values determined for combing test (number of hair lost during combing). From the combing test results at t=0, t=45 and t=90 the percentage of reduction of hair loss is calculated contrasting values of t=0 with the values at t=45 and at t=90."}, "[5]": {"conditions": "group mean, minimal and maximal values not considered"}, "[6]": {"conditions": "group mean, combing test, minimal and maximal values not considered"}, "[7]": {"conditions": "individual volunteers, negative = fewer hairs lost"}}, "note": "Where “and” joins values, the source holds several entries; their conditions need not be identical. Equal entries are not always repeated.", "data": [{"substance": "CH3—C(O)—YIYT-NH2 (Ac-YIYT-NH2) [SEQ ID NO: 6, in vivo: dissolved 0.025% w/w in PBS buffered fortifying solution 2×]", "values": [{"measurement": "levels of insulin growth factor 1 (IGF-1)", "setting": "[1]", "value": "higher levels were meaningful"}, {"measurement": "expression index of miRNA-31", "setting": "miRNA-31", "value": "increase of the expression index of miRNA-31"}, {"measurement": "proliferation index of HDF", "setting": "[2]; Assay 5, FIG. 16, peptide, nutritive solution, or both in combination", "value": "can promote cell proliferation"}, {"measurement": "proliferation index of HDF", "setting": "[2]; FIGS. 6 and 7, 4Aa at 25, 12.5, 1.25 μg/ml, 5Aa at 1.25, 0.63, 0.25 μg/ml", "value": "can promote cell proliferation of HDF"}, {"measurement": "new hairs appeared in the whole hair", "setting": "[3]; concluded from the mean hair density increase at T150", "value": "≤ 14000", "unit": "hairs"}, {"measurement": "Capillary density increase", "setting": "[3]; group average, t=90 in relation to t=0, daily application (Table 4)", "value": 14.66, "unit": "%"}, {"measurement": "HAIR DENSITY INCREASE T90, Mean", "setting": "[3]; [5]", "value": 14.03, "unit": "%"}, {"measurement": "HAIR DENSITY INCREASE T150, Mean", "setting": "[3]; [5]", "value": 19.27, "unit": "%"}, {"measurement": "HAIR DENSITY INCREASE T90", "setting": "[3]; individual volunteers, T90 vs T0", "value": "16.66% and 6.06% and 40.91% and 11.11% (2×) and 22.73% and 34.37% and 5.40% and 17.15% and 7.14% and 0.00% (3×) and −9.62%(*) and 70.01%(*) and 4.76% and 39.99% and 9.67% and 11.54%"}, {"measurement": "HAIR DENSITY INCREASE T150", "setting": "[3]; individual volunteers, T150 vs T0", "value": "24.99% and 6.06% and 36.36% and 14.63% and 18.18% and 21.87% and −5.41% and 2.86% and 35.71% and 0.00% (2×) and 14.81% and −7.69%(*) and 60.01% and 38.09% and 7.40% and 73.32%(*) and 9.67% and 42.31%"}, {"measurement": "HAIR DENSITY 1/cm2 T90", "setting": "[3]; individual volunteers, T90 days", "value": "111.38 1/cm2 and 139.22 1/cm2 and 123.31 1/cm2 (2×) and 119.33 1/cm2 (3×) and 107.4 1/cm2 (2×) and 171.04 1/cm2 and 155.13 1/cm2 and 163.09 1/cm2 and 115.35 1/cm2 (2×) and 186.95 1/cm2 and 135.24 1/cm2 (2×) and 87.51 1/cm2 and 83.53 1/cm2"}, {"measurement": "Nr HAIRS/0.25 cm2 T90", "setting": "[3]; individual volunteers, T90 days, daily application", "value": "28 HAIRS/0.25 cm2 and 35 HAIRS/0.25 cm2 and 31 HAIRS/0.25 cm2 (2×) and 30 HAIRS/0.25 cm2 (3×) and 27 HAIRS/0.25 cm2 (2×) and 43 HAIRS/0.25 cm2 and 39 HAIRS/0.25 cm2 and 41 HAIRS/0.25 cm2 and 29 HAIRS/0.25 cm2 (2×) and 47 HAIRS/0.25 cm2 and 34 HAIRS/0.25 cm2 (2×) and 22 HAIRS/0.25 cm2 and 21 HAIRS/0.25 cm2"}, {"measurement": "HAIR DENSITY 1/cm2 T150", "setting": "[3]; individual volunteers, T150 days", "value": "119.33 1/cm2 (2×) and 139.22 1/cm2 (2×) and 123.11 1/cm2 and 103.42 1/cm2 (2×) and 155.13 1/cm2 and 143.2 1/cm2 and 151.15 1/cm2 and 115.35 1/cm2 (3×) and 123.31 1/cm2 (2×) and 190.93 1/cm2 and 127.29 1/cm2 and 135.24 1/cm2 and 147.18 1/cm2"}, {"measurement": "Nr HAIRS/0.25 cm2 T150", "setting": "[3]; individual volunteers, T150 days, daily application", "value": "30 HAIRS/0.25 cm2 (2×) and 35 HAIRS/0.25 cm2 (2×) and 31 HAIRS/0.25 cm2 (3×) and 26 HAIRS/0.25 cm2 (2×) and 39 HAIRS/0.25 cm2 and 36 HAIRS/0.25 cm2 and 38 HAIRS/0.25 cm2 and 29 HAIRS/0.25 cm2 (3×) and 48 HAIRS/0.25 cm2 and 32 HAIRS/0.25 cm2 and 34 HAIRS/0.25 cm2 and 37 HAIRS/0.25 cm2"}, {"measurement": "reduction of the % of hair loss (in words)", "setting": "[4]; T45, T90 and T150 compared with T0", "value": "meaningful reduction of the % of hair loss"}, {"measurement": "% REDUCTION OF HAIR LOSS T0 vs. T150, Mean", "setting": "[4]; [6]", "value": 68.15, "unit": "%"}, {"measurement": "% hair-loss reduction t = 0 vs t = 45, mean", "setting": "[4]; [6]", "value": 40.48, "unit": "%"}, {"measurement": "% hair-loss reduction t = 0 vs t = 90, mean", "setting": "[4]; [6]", "value": 39.72, "unit": "%"}, {"measurement": "COMBING TEST T45", "setting": "[4]; individual volunteers, number of hair lost during combing, day 45", "value": "7 and 54 and 23 and 13 and 88 and 184 and 34 and 58 and 60 and 62 and 50 and 10 and 31 and 28 and 101 and 66 and 24 and 14 and 46 and 92"}, {"measurement": "COMBING TEST T90", "setting": "[4]; individual volunteers, number of hair lost during combing, day 90", "value": "6 and 88 and 28 (2×) and 36 and 154 and 60 and 50 and 61 and 84 and 27 and 12 and 45 and 118 and 91 and 23 and 22 and 59 and 62"}, {"measurement": "COMBING TEST T150", "setting": "[4]; individual volunteers, number of hair lost during combing, day 150", "value": "5 and 13 (2×) and 19 (2×) and 22 and 24 and 18 and 12 and 20 (3×) and 23 and 29 and 95 and 42 and 167 and 16 and 36"}, {"measurement": "% REDUCTION OF HAIR LOSS T0 VS. T45", "setting": "[4]; [7]", "value": "−86.27% and −55.74% and −46.51% and −69.05% and 72.55% and 183.08(*) % and −43.33% and −44.23% and −47.83% and −78.32% and −30.56% and −98.13(*) % and −36.73% and −68.54% and −31.29% and −67.00% and −22.58% and −64.10% and −42.50% and 33.33%"}, {"measurement": "% REDUCTION OF HAIR LOSS T0 VS. T90", "setting": "[4]; [7]", "value": "−88.24% and −27.87% and −34.88% and −33.33% and −29.41% and 136.92(*) % and 0.00% and −51.92% and −46.96% and −70.63% and −62.50% and −97.76(*) % and −49.44% and −19.73% and −54.50% and −25.81% and −43.59% and −26.25% and −10.14%"}, {"measurement": "% REDUCTION OF HAIR LOSS T0 vs. T150", "setting": "[4]; [7]", "value": "−90.20% and −89.34% and −69.77% and −54.76% and −56.86% and −63.08% and −70.00% and −88.46% and −82.61% and −91.96(*) % and −59.72% and −82.24% and −78.65% and −71.43% and −16.50% and −35.48(*) % and −58.97% and −55.00% and −71.01%"}]}]}
